Data reported in patent publication US9352010B2, “Treatment of HIV-1 infection and AIDS” (The J. David Gladstone Institutes, priority 2011, dated 2016).

What was measured:
Type in all cases: cell-based, human
[1] = system: HIV-1 reverse transcription products; test: Taqman QPCR of HIV-1 reverse transcription products in infected CD4 T-cells; details: 16 hours after infection with NL4-3, versus untreated cells
Experimental: Fresh HLACs were washed once with PBS and resuspended with PBS containing 5 mM EDTA and 2% fetal bovine serum. CD4 T-cells were isolated from HLACs by positive selection on CD4 microbeads (Miltenyi) and cultured overnight in 96-well U-bottomed plates (1×10^6 cells/well) as described above, and AZT was added to the indicated cell samples. Next day, the rest of the drugs were added to the indicated cell samples at concentrations as described above. Cells were chilled on ice for 15 min and DNAse-treated (Ambion, 60 U/ml, 1 hour, 37° C.) NL4-3 or Δvif NL4-3 virions (200 ng/well) were added. After a 1 hour incubation with virions on ice, cells were spinoculated at 1200 g for 2 hours at 4° C., incubated at 37° C. for 2 hours, washed three times with cold PBS, and resuspended in fresh RPMI with the indicated drugs. Eight or 16 hours after spinoculation, cell pellets were frozen at −80° C. Total DNA was purified from each cell pellet with a DNAse kit (Qiagen). Primer and probe sequences used to detect reverse transcription products are provided herein. QPCR reactions were performed in triplicates in TaqMan universal PCR master mix using each primer at 3.75 μM and probe at 2.5 μM. After 15 minutes at 95° C., reactions underwent 50 cycles of 15 sec at 95° C. followed by 1 min at 60° C. in an ABI Prism 7900HT (Applied Biosystems).
Next the status of HIV-1 reverse transcription in tonsillar CD4 T-cells after infection was examined. […] Taqman-based quantitative real-time PCR (QPCR) was used to quantify the synthesis of reverse transcription products in isolated CD4 T-cells from HLAC 16 hours after infection with NL4-3. Specific QPCR primers and probes were designed (Table 1) to monitor sequential steps in reverse transcription including generation of strong-stop DNA, first template exchange (Nef), and DNA strand elongation (Env) (FIG. 10A)

[2] = system: CD4 T cells in HIV-1 (NL4-3)-infected HLACs; test: CD4 T-cell death in HIV-1-infected HLACs, viable CD4 T cells by flow cytometry; details: FIG. 15, 4 different donors
[3] = system: caspase-1 and caspase-3; test: Intracellular caspase activity after spinoculation with NL4-3; details: AZT 5 μM, efavirenz 100 nM, T20 10 μg/ml, 3 days
Experimental: HLACs were subjected to intracellular analysis of caspases activity and cytokine expression 3 days after spinoculation with NL4-3. Intracellular caspase-1, -3, -6, -8, and -9 activities were analyzed with a CaspaLux1 E1D2, Phiphilux G1D2, CaspaLux6 J1D2, CaspaLux 8 L1D2, and CaspaLux 9 M1D2 kits (OncoImmunin), respectively, at 37° C. for 15 min, followed by staining with PE anti-CD4, and APC anti-CD8, at 4° C. for 15 min. For annexin V analysis, cells were stained with APC-conjugated annexin V together with PE anti-CD4, FITC anti-CD8, and with 0.5 μg/ml ethidium monoazide (E-1374, Molecular Probes) for 15 min at 4° C. For intracellular cytokine capture, cells were incubated with 2 μM protein transport inhibitor GolgiStop (BD Biosciences) containing monensin, and 5 μg/ml Brefeldin A (EMD biosciences) at 37° C. for 6 hours before analysis. Cells were then stained with anti-CD4 and anti-CD8 antibodies at 4° C. for 15 min, and fixed in 1% paraformaldehyde at 4° C. for 1 hour. Fixed cells were washed extensively with PBS and were stained in 0.2% saponin buffer (PBS+2% FBS+0.2% saponin) containing PE anti-human TNFα (R&D Systems), FITC anti-human IFNβ (PBL Biomedical laboratories), PE anti-human IL-1β (BD Biosciences), or APC anti-phosphorylated p53 at serine 37 (pS37) at 4° C. for 1 hour.

Compound | reverse transcription products corresponding to strong-stop DNA [1] | death of infected CD4 T-cells [2] | activation of caspase-1 and caspase-3 in abortively infected CD4 T-cells [3]
c1cc(CN2CCCNCCNCCCNCC2)ccc1CN1CCCNCCNCCCNCC1 [AMD3100] | greatly reduced | inhibit the death of infected CD4 T-cells | –
Cc1cn([C@H]2C[C@H](N=[N+]=[N-])[C@@H](CO)O2)c(=O)[nH]c1=O [AZT] | similar | – | –
O=C1Nc2ccc(Cl)cc2[C@@](C#CC2CC2)(C(F)(F)F)O1 [efavirenz] | – | inhibit the death of infected CD4 T-cells | prevented activation of these caspases
enfuvirtide | – | – | prevented activation of these caspases
